Experimental data taken from PubChem BioAssay (NCI).
“And” between values parts separate entries of the source, which are not always exact repeats. Equal entries are not always repeated.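 Exposure lasted 48 hours, with cells grown in 96-well plates and compounds tested at five concentrations. The concentration for 50% growth inhibition is given as GI50. TGI: concentration producing complete growth inhibition.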

Tests used:
Assay in all cases: NCI anticancer screen, dose series, 48 h
COLO 205 colon = tested on: COLO 205 colon
SNB-19 CNS = tested on: SNB-19 CNS
NCI-H23 lung = tested on: NCI-H23 lung
DU-145 prostate = tested on: DU-145 prostate
MDA-MB-231 breast = tested on: MDA-MB-231 breast
HS 578T breast = tested on: HS 578T breast
K-562 leukemia = tested on: K-562 leukemia
HOP-92 NSCLC = tested on: HOP-92 NSCLC
A498 renal = tested on: A498 renal
OVCAR-3 ovarian = tested on: OVCAR-3 ovarian
SF-295 CNS = tested on: SF-295 CNS
CCRF-CEM leukemia = tested on: CCRF-CEM leukemia

Row | Structure (SMILES) | TGI (COLO 205 colon) | TGI (SNB-19 CNS) | TGI (NCI-H23 lung) | TGI (DU-145 prostate) | TGI (MDA-MB-231 breast) | TGI (HS 578T breast) | TGI (K-562 leukemia) | TGI (HOP-92 NSCLC) | TGI (A498 renal) | TGI (OVCAR-3 ovarian) | TGI (SF-295 CNS) | TGI (CCRF-CEM leukemia) | GI50 (HOP-92 NSCLC)
1 | CC(=O)Oc1ccc(C2SCc3nc4ccccc4n32)cc1 (stereo not given) | 56.3 µM | > 100 µM | > 100 µM | > 100 µM | > 100 µM | > 100 µM | > 100 µM | > 100 µM | 73.8 µM | > 100 µM | > 100 µM | > 100 µM | –
2 | COc1ccc2oc(=O)c(-c3nc4ccccc4s3)cc2c1 | > 100 µM | > 100 µM | > 63.9 µM | > 67.5 µM | 53.2 µM | > 95.8 µM | > 100 µM | 58.2 µM | 54.2 µM | 43.7 µM | > 57.3 µM | > 75.6 µM | –
3 | CCOc1ccnc2c(OC)c(C)c3nc4ccccc4nc3c12 | > 100 µM | > 100 µM | > 100 µM | > 100 µM | > 100 µM | > 100 µM | > 100 µM | > 100 µM | > 100 µM | > 100 µM | > 100 µM | > 100 µM | –
4 | O=[N+]([O-])c1cc(C2ON=C(c3ccccc3)N2C23CC4CC(CC(C4)C2)C3)ccc1Cl (stereo not given) | > 100 µM | > 100 µM | > 100 µM | > 100 µM | > 100 µM | > 100 µM | > 100 µM | > 100 µM | > 100 µM | > 100 µM | > 100 µM | > 100 µM | –
5 | Cc1cn(C2CC(/[N+]([O-])=N\Nc3ccc([N+](=O)[O-])cc3)C(CO)O2)c(=O)[nH]c1=O (stereo not given) | > 100 µM | > 100 µM | > 100 µM | > 100 µM | > 100 µM | > 100 µM | > 100 µM | > 100 µM | > 100 µM | > 100 µM | > 100 µM | > 100 µM | –
6 | CC1(C)C/C=C\CCC(O)C(O)CCC(C)(C)C1=O (stereo not given) | > 100 µM | > 100 µM | > 100 µM | > 100 µM | > 100 µM | > 100 µM | > 100 µM | > 100 µM | > 100 µM | > 100 µM | > 100 µM | > 100 µM | –
7 | O=CC1C(=O)Nc2nc3ccccc3n2C1c1ccccc1 (stereo not given) | 26.2 µM | – | 53.5 µM | 25.3 µM | 44.3 µM | > 100 µM | 35.3 µM | 31.3 µM | 28.8 µM | 20.7 µM | 43.8 µM | 75.2 µM | –
8 | COc1ccc(C(CC(=O)c2ccc(O)cc2)C(C(=O)c2ccc(O)cc2)C(c2ccc(OC)cc2)C2C(=O)NC(=S)NC2=O)cc1 (stereo not given) | 45.1 µM | 43.7 µM | – | 33.8 µM | 55.9 µM | 67.8 µM | > 100 µM | > 100 µM | > 100 µM | – | 52.3 µM | 36 µM | –
9 | [B]C(=O)NC(CC(C)C)C(=O)NC1c2ccsc2C(=O)C1O (stereo not given) (tested in a mixture with another compound) | > 100 µM | > 100 µM | > 100 µM | > 100 µM | > 100 µM | > 100 µM | > 100 µM | > 100 µM | > 100 µM | – | > 100 µM | > 100 µM | 44.6 µM and > 100 µM
